Our source for the LC retention time values is the RepoRT retention time repository (doi:10.1007/s11356-017-9929-x).

A short description of this data set: RP, GL Sciences Inertsil ODS-4, 150 × 2.1 mm, 3 µm, 40 °C, 0.3 mL/min, estimated dead time 1.1 min; A: water + 5 mM ammonium acetate; B: methanol + 5 mM ammonium acetate; gradient (min/%B) 0/5 30/95 50/95. As to conditions: stereoisomer not certain.
On to `CCCCNC(=O)NS(=O)(=O)c1ccc(C)cc1`, for which the LC retention time is 19.6 min.
The same measure for `Cc1cc(C2CC2)nc(Nc2ccccc2)n1`: 29.8 min; for `Cc1ccc(C(=O)C(C)CN2CCCCC2)cc1` (stereo unspecified): 23.4 min; for `NC1=NCC2c3ccccc3Cc3ccccc3N12` (stereo unspecified): 20.1 min.
The same measure for `COP(=O)(OC)Oc1ccc(S(C)=O)c(C)c1` (stereo unspecified): 16.9 min; for `CCCCOC(=O)N(C)SN(C)C(=O)Oc1cccc2c1OC(C)(C)C2`: 31.5 min.
